Measured values from patent publication US20240024273A1, “TOPICAL ADMINISTRATION OF 2-(DIETHYLAMINO)ETHYL 2-(4-ISOBUTYLPHENYL)PROPRIONATE FOR TREATMENT OF DISEASES” (TECHFIELDS PHARMA CO., LTD., priority 2020, published 2024).

Test system: Subjects with Osteoarthritis of the Knee
Test: Second Phase 2 study: safety (treatment-emergent adverse events)
Assay type: in vivo, human
Conditions: BID
Description: Safety assessments will be performed at each visit and will include assessment of AEs, vital signs (blood pressure, pulse rate, and oral temperature), clinical laboratories, physical examination, skin irritation, and electrocardiograms (ECGs) as indicated in the study flow chart, Table 47.
Safety assessments will include AEs, vital signs (blood pressures, pulse rate, and oral temperature), clinical laboratories, physical examination, skin irritation, and ECGs at various time points during the study as indicated in the study flow chart.
Adverse events of interest include: local skin reactions around the treated knee(s), upper stomach pain, GI bleeding, serious cardiovascular side effects (e.g., thrombotic events, myocardial infarction, or stroke), jaundice, elevated liver function tests, and nausea.
Safety analyses will be conducted on the SAS. Safety parameters will be listed and summarized using standard descriptive statistics, as appropriate. No formal statistical analyses are planned.

[1] = moderate adverse events, 4.375 mg/knee, N = 71
[2] = moderate adverse events, 8.75 mg/knee, N = 70
[3] = possibly, probably, or definitely related to study drug, 4.375 mg/knee, N = 71
[4] = possibly, probably, or definitely related to study drug, 8.75 mg/knee, N = 70
[5] = possibly, probably, or definitely related to study drug, 17.5 mg/knee, N = 70

## CCN(CC)CCOC(=O)C(C)c1ccc(CC(C)C)cc1 (stereo not shown) [2-(diethylamino)ethyl 2-(4-isobutylphenyl)propionate]
[1]
  Gastroenteritis: subjects with adverse events: 1
  Gastroesophageal reflux disease: number of adverse events: 1
  Gastroesophageal reflux disease: percentage of subjects with adverse events: 1.4%
  Gastroesophageal reflux disease: subjects with adverse events: 1
  Total Adverse Events: number of adverse events: 3
  Total Adverse Events: percentage of subjects with adverse events: 4.2%
  Total Adverse Events: subjects with adverse events: 3
  Upper Respiratory Tract Infection: number of adverse events: 1
  Upper Respiratory Tract Infection: percentage of subjects with adverse events: 1.4%
  Upper Respiratory Tract Infection: subjects with adverse events: 1
[2]
  Total Adverse Events: number of adverse events: 4
  Total Adverse Events: percentage of subjects with adverse events: 5.7%
  Total Adverse Events: subjects with adverse events: 4
  Upper Respiratory Tract Infection: number of adverse events: 4
  Upper Respiratory Tract Infection: percentage of subjects with adverse events: 1.4%
  Upper Respiratory Tract Infection: subjects with adverse events: 4
[3]
  Abdominal Pain Upper: number of adverse events: 1
  Abdominal Pain Upper: percentage of subjects with adverse events: 1.4%
  Abdominal Pain Upper: subjects with adverse events: 1
  Administration Site Conditions: number of adverse events: 1
  Administration Site Conditions: percentage of subjects with adverse events: 1.4%
  Administration Site Conditions: subjects with adverse events: 1
  Alanine Aminotransferase Increased: number of adverse events: 1
  Alanine Aminotransferase Increased: percentage of subjects with adverse events: 1.4%
  Alanine Aminotransferase Increased: subjects with adverse events: 1
  Application Site Irritation: number of adverse events: 1
  Application Site Irritation: percentage of subjects with adverse events: 1.4%
  Application Site Irritation: subjects with adverse events: 1
  Aspartate Aminotransferase Increased: number of adverse events: 3
  Aspartate Aminotransferase Increased: percentage of subjects with adverse events: 4.2%
  Aspartate Aminotransferase Increased: subjects with adverse events: 3
  Gamma-Glutamyltransferase Increased: number of adverse events: 2
  Gamma-Glutamyltransferase Increased: percentage of subjects with adverse events: 2.8%
  Gamma-Glutamyltransferase Increased: subjects with adverse events: 2
  Headache: number of adverse events: 1
  Headache: percentage of subjects with adverse events: 1.4%
  Headache: subjects with adverse events: 1
  Hypertriglyceridemia: number of adverse events: 6
  Hypertriglyceridemia: percentage of subjects with adverse events: 7.0%
  Hypertriglyceridemia: subjects with adverse events: 5
  Positive Fecal Occult Blood Test: number of adverse events: 6
  Positive Fecal Occult Blood Test: percentage of subjects with adverse events: 7.0%
  Positive Fecal Occult Blood Test: subjects with adverse events: 5
  Throat Irritation: number of adverse events: 2
  Throat Irritation: percentage of subjects with adverse events: 2.8%
  Throat Irritation: subjects with adverse events: 2
  Total Adverse Events: number of adverse events: 26
  Total Adverse Events: percentage of subjects with adverse events: 33.8%
  Total Adverse Events: subjects with adverse events: 24
  White Blood Cell Count Decreased: number of adverse events: 2
  White Blood Cell Count Decreased: percentage of subjects with adverse events: 2.8%
  White Blood Cell Count Decreased: subjects with adverse events: 2
[4]
  Abdominal Discomfort: number of adverse events: 4
  Abdominal Discomfort: percentage of subjects with adverse events: 4.3%
  Abdominal Discomfort: subjects with adverse events: 3
  Abdominal Pain Upper: number of adverse events: 1
  Abdominal Pain Upper: percentage of subjects with adverse events: 1.4%
  Abdominal Pain Upper: subjects with adverse events: 1
  Administration Site Conditions: number of adverse events: 1
  Administration Site Conditions: percentage of subjects with adverse events: 1.4%
  Administration Site Conditions: subjects with adverse events: 1
  Alanine Aminotransferase Increased: number of adverse events: 1
  Alanine Aminotransferase Increased: percentage of subjects with adverse events: 1.4%
  Alanine Aminotransferase Increased: subjects with adverse events: 1
  Application Site Irritation: number of adverse events: 1
  Application Site Irritation: percentage of subjects with adverse events: 1.4%
  Application Site Irritation: subjects with adverse events: 1
  Diarrhoea: number of adverse events: 2
  Diarrhoea: percentage of subjects with adverse events: 2.9%
  Diarrhoea: subjects with adverse events: 2
  Dizziness: number of adverse events: 2
  Dizziness: percentage of subjects with adverse events: 2.9%
  Dizziness: subjects with adverse events: 2
  Headache: number of adverse events: 6
  Headache: percentage of subjects with adverse events: 5.7%
  Headache: subjects with adverse events: 4
  Hypertriglyceridemia: number of adverse events: 3
  Hypertriglyceridemia: percentage of subjects with adverse events: 4.3%
  Hypertriglyceridemia: subjects with adverse events: 3
  Positive Fecal Occult Blood Test: number of adverse events: 6
  Positive Fecal Occult Blood Test: percentage of subjects with adverse events: 7.1%
  Positive Fecal Occult Blood Test: subjects with adverse events: 5
  Throat Irritation: number of adverse events: 1
  Throat Irritation: percentage of subjects with adverse events: 1.4%
  Throat Irritation: subjects with adverse events: 1
  Total Adverse Events: number of adverse events: 34
  Total Adverse Events: percentage of subjects with adverse events: 41.4%
  Total Adverse Events: subjects with adverse events: 29
  White Blood Cell Count Decreased: number of adverse events: 2
  White Blood Cell Count Decreased: percentage of subjects with adverse events: 2.9%
  White Blood Cell Count Decreased: subjects with adverse events: 2
[5]
  Abdominal Discomfort: number of adverse events: 1
  Abdominal Discomfort: percentage of subjects with adverse events: 1.4%
  Abdominal Discomfort: subjects with adverse events: 1
  Abdominal Pain Upper: number of adverse events: 2
  Abdominal Pain Upper: percentage of subjects with adverse events: 1.4%
  Abdominal Pain Upper: subjects with adverse events: 1
  Administration Site Conditions: number of adverse events: 4
  Administration Site Conditions: percentage of subjects with adverse events: 5.7%
  Administration Site Conditions: subjects with adverse events: 4
  Application Site Irritation: number of adverse events: 1
  Application Site Irritation: percentage of subjects with adverse events: 1.4%
  Application Site Irritation: subjects with adverse events: 1
  Application Site Rash: number of adverse events: 3
  Application Site Rash: percentage of subjects with adverse events: 4.3%
  Application Site Rash: subjects with adverse events: 3
  Aspartate Aminotransferase Increased: number of adverse events: 1
  Aspartate Aminotransferase Increased: percentage of subjects with adverse events: 1.4%
  Aspartate Aminotransferase Increased: subjects with adverse events: 1
  Dizziness: number of adverse events: 1
  Dizziness: percentage of subjects with adverse events: 1.4%
  Dizziness: subjects with adverse events: 1
  Headache: number of adverse events: 1
  Headache: percentage of subjects with adverse events: 1.4%
  Headache: subjects with adverse events: 1
  Hypertriglyceridemia: number of adverse events: 6
  Hypertriglyceridemia: percentage of subjects with adverse events: 8.6%
  Hypertriglyceridemia: subjects with adverse events: 6
  Positive Fecal Occult Blood Test: number of adverse events: 5
  Positive Fecal Occult Blood Test: percentage of subjects with adverse events: 7.1%
  Positive Fecal Occult Blood Test: subjects with adverse events: 5
  Total Adverse Events: number of adverse events: 25
  Total Adverse Events: percentage of subjects with adverse events: 35.7%
  Total Adverse Events: subjects with adverse events: 25
